pEC50, pIC50: −log10 of the molar value.
Tests used:
[1] = system: Human immunodeficiency virus 1; assay: Anti-HIV activity against HIV-1 IIIB infected in human MT4 cells assessed as reduction in virus-induced cytopathic effect incubated for 5 days by MTT assay; type: functional, organism-based; details: Human immunodeficiency virus 1, IIIB, MT4, 120 h
[2] = system: Human immunodeficiency virus 2; assay: Anti-HIV activity against HIV2 ROD infected in human MT4 cells assessed as reduction in virus-induced cytopathic effect incubated for 5 days by MTT assay; type: functional, organism-based; details: Human immunodeficiency virus 2, ROD, MT4, 120 h
[3] = Cytotoxicity against human MT4 cells assessed as reduction in cell viability incubated for 5 days by MTT assay; type: cell-based; details: human, MT4 cells; time 5 day
[4] = system: Human immunodeficiency virus 1; assay: Antiviral activity against HIV1 harboring reverse transcriptase L100I mutant infected in human MT4 cells assessed as protection against virus-induced cytopathic effect incubated for 5 days by MTT assay; type: functional, organism-based; details: Human immunodeficiency virus 1, MT4, 120 h
[5] = system: Human immunodeficiency virus 1; assay: Antiviral activity against HIV1 harboring reverse transcriptase K103N mutant infected in human MT4 cells assessed as protection against virus-induced cytopathic effect incubated for 5 days by MTT assay; type: functional, organism-based; details: Human immunodeficiency virus 1, MT4, 120 h
[6] = system: Human immunodeficiency virus 1; assay: Antiviral activity against HIV1 harboring reverse transcriptase Y181C mutant infected in human MT4 cells assessed as protection against virus-induced cytopathic effect incubated for 5 days by MTT assay; type: functional, organism-based; details: Human immunodeficiency virus 1, MT4, 120 h
[7] = system: Human immunodeficiency virus 1; assay: Antiviral activity against HIV1 harboring reverse transcriptase Y188L mutant infected in human MT4 cells assessed as protection against virus-induced cytopathic effect incubated for 5 days by MTT assay; type: functional, organism-based; details: Human immunodeficiency virus 1, MT4, 120 h
[8] = system: Human immunodeficiency virus 1; assay: Antiviral activity against HIV1 harboring reverse transcriptase E138K mutant infected in human MT4 cells assessed as protection against virus-induced cytopathic effect incubated for 5 days by MTT assay; type: functional, organism-based; details: Human immunodeficiency virus 1, MT4, 120 h
[9] = system: Human immunodeficiency virus 1; assay: Antiviral activity against HIV1 harboring reverse transcriptase F227L/V106A mutant infected in human MT4 cells assessed as protection against virus-induced cytopathic effect incubated for 5 days by MTT assay; type: functional, organism-based; details: Human immunodeficiency virus 1, MT4, 120 h
[10] = Resistance fold, ratio of EC50 for HIV1 harboring reverse transcriptase Y181C mutant […] to EC50 for wild type HIV1 […]; type: functional
[11] = Resistance fold, ratio of EC50 for HIV1 harboring reverse transcriptase L100I mutant […] to EC50 for wild type HIV1 […]; type: functional
[12] = Resistance fold, ratio of EC50 for HIV1 harboring reverse transcriptase K103N mutant […] to EC50 for wild type HIV1 […]; type: functional
[13] = system: Human immunodeficiency virus 1; assay: Antiviral activity against HIV1 harboring reverse transcriptase K103N/Y181C double mutant infected in human MT4 cells assessed as protection against virus-induced cytopathic effect incubated for 5 days by MTT assay; type: functional, organism-based; details: Human immunodeficiency virus 1, MT4, 120 h
[14] = Selectivity index, ratio of CC50 for cytotoxicity against human MT4 cells to EC50 of Anti-HIV activity against HIV-1 IIIB infected in human MT4; type: toxicity, cell-based; details: read-out: Selectivity Index
[15] = Resistance fold, ratio of EC50 for HIV1 harboring reverse transcriptase Y188L mutant […] to EC50 for wild type HIV1 […]; type: functional
[16] = Resistance fold, ratio of EC50 for HIV1 harboring reverse transcriptase E138K mutant […] to EC50 for wild type HIV1 […]; type: functional
[17] = Resistance fold, ratio of EC50 for HIV1 harboring reverse transcriptase F227L/V106A double mutant […] to EC50 for wild type HIV1 […]; type: functional
[18] = Resistance fold, ratio of EC50 for HIV1 harboring reverse transcriptase K103N/Y181C double mutant […] to EC50 for wild type HIV1 […]; type: functional
[19] = biological target: Human immunodeficiency virus type 1 reverse transcriptase (Human immunodeficiency virus 1, UniProt Q72547); assay: Inhibition of wild type HIV1 reverse transcriptase using oligo(dT)16 as primer measured after 40 mins by picogreen-dye based spectrofluorimetric analysis

| Compound | pEC50 [1] | pEC50 [2] | CC50 at 120 h [3] | pEC50 [4] | pEC50 [5] | pEC50 [6] | pEC50 [7] | pEC50 [8] | pEC50 [9] | Ratio EC50 [10] | Ratio EC50 [11] | Ratio EC50 [12] | pEC50 [13] | selectivity ratio [14] | Ratio EC50 [15] | Ratio EC50 [16] | Ratio EC50 [17] | Ratio EC50 [18] | pIC50 [19] |
| --- | --- | --- | --- | --- | --- | --- | --- | --- | --- | --- | --- | --- | --- | --- | --- | --- | --- | --- | --- |
| CNc1cc(Oc2c(OC)cc3cc(C#N)ccc3c2OC)nc(Nc2ccc(C#N)cc2)n1 | 7.41 | 4.28 | 239 µM | 6.29 | 7.34 | 6.51 | 5.66 | 6.60 | 4.97 | 8 | 13 | 1 | 5.84 | 4080 | 56 | 6 | 271 | 37 | 6.62 |
| CCC(CC)Nc1cc(Oc2c(OC)cc3cc(C#N)ccc3c2OC)nc(Nc2ccc(C#N)cc2)n1 | 6.89 | < 3.00 | > 125 µM | 5.23 | 6.96 | 5.88 | 4.61 | 6.57 | < 3.00 | 10 | 46 | 1 | 4.15 | > 1930 | 192 | 2 | >7862 | 555 | 6.22 |
| CCCCNc1cc(Oc2c(OC)cc3cc(C#N)ccc3c2OC)nc(Nc2ccc(C#N)cc2)n1 | – | < 3.00 | > 125 µM | 6.20 | 7.51 | – | 5.51 | 7.19 | < 3.00 | – | 24 | 1 | 5.82 | > 9600 | 119 | 2 | >38461 | 58 | 6.77 |
| CCCC(C)Nc1cc(Oc2c(OC)cc3cc(C#N)ccc3c2OC)nc(Nc2ccc(C#N)cc2)n1 (stereo not given) | 7.11 | < 3.00 | > 125 µM | 5.66 | 7.19 | 6.18 | 4.96 | 6.60 | < 3.00 | 8 | 28 | 1 | 5.06 | > 3140 | 139 | 3 | >12771 | 112 | 6.40 |
| CCC(C)Nc1cc(Oc2c(OC)cc3cc(C#N)ccc3c2OC)nc(Nc2ccc(C#N)cc2)n1 (stereo not given) | 7.35 | < 3.00 | > 125 µM | 5.86 | 6.38 | 6.37 | 5.40 | 6.92 | < 3.00 | 10 | 31 | 9 | 5.43 | > 5670 | 89 | 3 | >22472 | 83 | 6.59 |
| CCCNc1cc(Oc2c(OC)cc3cc(C#N)ccc3c2OC)nc(Nc2ccc(C#N)cc2)n1 | 7.77 | < 3.00 | > 125 µM | 6.33 | 7.80 | 6.74 | 5.94 | 7.34 | 4.19 | 11 | 28 | 1 | 5.90 | > 15700 | 68 | 3 | 3827 | 75 | 6.96 |
| COc1cc2cc(C#N)ccc2c(OC)c1Oc1cc(NCC2CCOCC2)nc(Nc2ccc(C#N)cc2)n1 | 7.66 | < 3.00 | > 125 µM | 6.82 | 7.80 | 7.28 | 6.43 | 7.19 | 5.61 | 2 | – | 2 | 6.62 | > 10700 | 17 | 4 | 113 | 11 | 6.70 |
| CCCCCNc1cc(Oc2c(OC)cc3cc(C#N)ccc3c2OC)nc(Nc2ccc(C#N)cc2)n1 | 7.37 | < 3.00 | > 125 µM | 5.84 | 7.39 | 6.30 | 4.30 | 7.02 | < 3.00 | 12 | 33 | 1 | 5.20 | > 5670 | 1171 | 2 | >23095 | 147 | 7.70 |
| COc1cc2cc(C#N)ccc2c(OC)c1Oc1cc(NCCCO)nc(Nc2ccc(C#N)cc2)n1 | 7.85 | 5.39 | 23.5 µM | 6.51 | 7.92 | 6.96 | 6.36 | 7.26 | 5.79 | 8 | – | 1 | 6.64 | > 1630 | 31 | 4 | 113 | 16 | 6.72 |
| COc1cc2cc(C#N)ccc2c(OC)c1Oc1cc(NC2CCOCC2)nc(Nc2ccc(C#N)cc2)n1 | 7.40 | < 3.00 | > 125 µM | 5.82 | 7.05 | 6.05 | 5.58 | 6.68 | < 3.00 | 23 | – | 1 | 5.36 | > 5970 | 65 | 3 | >25000 | 108 | 6.52 |
| COc1cc2cc(C#N)ccc2c(OC)c1Oc1cc(NC(C)C)nc(Nc2ccc(C#N)cc2)n1 | – | < 3.00 | > 125 µM | – | 6.33 | – | – | 7.33 | – | – | – | 19 | – | > 10400 | – | 2 | – | – | 6.85 |
| COc1cc2cc(C#N)ccc2c(OC)c1Oc1cc(NC(C)(C)C)nc(Nc2ccc(C#N)cc2)n1 | 7.28 | < 3.00 | > 125 µM | 5.72 | 7.12 | 6.19 | 5.19 | 6.74 | < 3.00 | 12 | 36 | 1 | 4.55 | > 4830 | 125 | 4 | >19231 | 548 | 6.51 |
| COc1cc2cc(C#N)ccc2c(OC)c1Oc1cc(NCC(C)C)nc(Nc2ccc(C#N)cc2)n1 | 7.46 | < 3.00 | > 125 µM | 3.90 | 6.96 | 4.36 | 4.88 | 6.89 | < 3.00 | 1253 | 3646 | 3 | < 3.00 | > 7250 | 383 | 4 | >28736 | >28736 | 6.60 |
| Nc1ccn([C@@H]2CS[C@H](CO)O2)c(=O)n1 [LAMIVUDINE] | 5.24 | – | > 20 µM | 5.67 | – | 5.34 | – | 5.07 | 5.51 | 1 | 0.4 | 1 | 5.22 | > 15 | 0 | 1 | 1 | 1 | – |

Source: ChEMBL document CHEMBL5036347, “Design of the naphthyl-diarylpyrimidines as potent non-nucleoside reverse transcriptase inhibitors (NNRTIs) via structure-based extension into the entrance channel” (Eur J Med Chem, 2021)
